Reference: US8093239B2, “Imidazopyridine kinase inhibitors” (GlaxoSmithKline LLC, priority 2007, dated 2012)

What was measured:
[1] = tested on: LISN cell (mouse 3T3 fibroblasts transduced with human IGF-1R) tumors; test: In vivo efficacy, mice bearing LISN cell tumors; conditions: for tumor growth inhibition at day 21: LISN tumors (~362 mm^3)
Procedure: E. In Vivo Efficacy—Mouse Models
The efficacy of the compounds of Examples 57 and 58 were assessed together in an in vivo efficacy experiment performed on mice bearing LISN cell (mouse 3T3 fibroblasts transduced with human IGF-1R) tumors. Fifty six female nude mice bearing subcutaneous LISN cell tumors were measured for tumor size and body weight and block randomized into seven groups of eight mice with an equal average tumor volume of approximately 200 mm3. Mice were dosed with either vehicle (20% SBE pH3.5), Example 57 or Example 58. The dosing schedules for each compound were based on previous experiments with the compounds and doses chosen to give the highest tumor growth inhibition and a dose response. Example 58 was dosed at 30, 100 and 300 mg/kg QD for 21 days while Example 57 was dosed at 30 mg/kg QD for 21 days, 15 mg/kg BID for 21 days and 30 mg/kg QD×3 days/week for 3 weeks.
The tumors on mice being treated with vehicle grew with the expected exponential growth throughout the 21 day study. […] The lower dose of 30 mg/kg of Example 58 achieved 28% tumor growth inhibition.
The efficacy of the compounds of Examples 237 and 219 were assessed together in an in vivo efficacy experiment performed on mice bearing LISN cell (mouse 3T3 fibroblasts transduced with human IGF-1R) tumors. Sixty four female nude mice bearing subcutaneous LISN cell tumors were measured for tumor size and body weight and block randomized into eight groups of eight mice with an equal average tumor volume of approximately 362 mm^3. Mice were dosed with either vehicle (20% SBE pH3.5), Example 237 or Example 219. The dosing schedules for each compound were based on previous experiments with the compounds and doses chosen to give the highest tumor growth inhibition and a dose response. Example 237 was administered at 30 and 60 mg/kg QD for 21 days and 30 mg/kg BID for 21 days while Example 219 was administered at 50 and 100 mg/kg QD for 21 days, 25 and 50 mg/kg BID for 21 days.
The tumors on mice being treated with vehicle grew with the expected exponential growth throughout the 21 day study. […] The lower dose of 30 mg/kg QD of Example 237 achieved 15% tumor growth inhibition at day 21 (note: 2 animals were euthanized prior to the last measurement). […] This recovered to 3% by the end of dosing and fully recovered after dosing was concluded. […] This recovered fully within 4 days after the completion of dosing.

[2] = tested on: Colo-205 tumors (colon carcinoma cell line); test: In vivo efficacy, Colo-205 tumor bearing mice; design: species or system mouse; conditions: Colo-205 study
Procedure: (§1) In addition to the LISN xenograft efficacy studies, Example 57 has also been assessed in vivo in two other mouse models of cancer, including: Colo-205 tumor bearing mice (colon carcinoma cell line) and BT474 tumor bearing mice (breast carcinoma cell line). Forty female nude mice bearing Colo-205 tumors (average tumor size of 200 mm3) were randomized into five groups of eight mice and dosed with either vehicle (20% SBE pH3.5) or Example 57 at 100, 30, 10 mg/kg QD or 30 mg/kg BID for 21 days. The groups of mice dosed with the higher doses of Example 57 (100 mg/kg QD and 30 mg/kg BID) lost greater than 20% body weight within 10 days of dosing so were taken off the study and allowed to recover. […] The higher doses of 100 mg/kg QD×10 and 30 mg/kg BID×10 achieved 72 and 49% tumor growth inhibition respectively.

[3] = tested on: BT474 cell tumors (breast carcinoma cell line); test: In vivo efficacy, BT474 tumor bearing mice; design: species or system mouse; conditions: BT474 study, all groups (60, 30, 15 mg/kg QD, 15 mg/kg BID)
Procedure: as §1
Due to the body weight loss seen with the higher doses in the Colo-205 xenograft efficacy study, the dosing regime was altered for the follow up BT474 study. Forty female nude mice bearing subcutaneous BT474 cell tumors (average tumor size of 200 mm3) were randomized into five groups each containing eight mice and dosed with either vehicle (20% SBE pH3.5) or Example 57 at 60, 30 or 15 mg/kg QD or 15 mg/kg BID for 21 days. Note the maximal QD dose was reduced from 100 mg/kg to 60 mg/kg and the BID dose reduced from 30 mg/kg to 15 mg/kg. […]

[4] = LISN study (~362 mm^3), 100 mg/kg and 50 mg/kg QD

## COc1cc(N2CCC(N3CCN(CCF)CC3)CC2)ccc1Nc1nccc(-c2c(-c3cccc(C(=O)Nc4c(F)cccc4F)c3)nc3ccccn23)n1 [Example 57, N-(2,6-difluorophenyl)-3-[3-(2-{[4-{4-[4-(2-fluoroethyl)-1-piperazinyl]-1-piperidinyl}-2-(methyloxy)phenyl]amino}-4-pyrimidinyl)imidazo[1,2-a]pyridin-2-yl]benzamide]
[1]; LISN study, 30 mg/kg QD and 15 mg/kg BID treated groups, 21 days
  body weight loss: no body weight loss
[1]; LISN study, 30 mg/kg QD and 15 mg/kg BID, 21 days
  tolerability: well tolerated
[1]; LISN study, 30 mg/kg QD×3 days/week for 3 weeks, over the three consecutive days of dosing, recovered in the four days between doses
  body weight loss: significant body weight loss
[2]; 100 mg/kg QD and 30 mg/kg BID, within 10 days of dosing
  body weight lost: greater than 20%
[2]; 30 and 10 mg/kg QD×21
  body weight loss: no body weight loss
[3]
  body weight loss: no body weight loss

## COc1cc(N2CCC(N3CCN(S(C)(=O)=O)CC3)CC2)ccc1Nc1nccc(-c2c(-c3cccc(C(=O)Nc4c(F)cccc4F)c3)nc3ccccn23)n1 [Example 58, N-(2,6-difluorophenyl)-3-(3-{2-[(2-(methyloxy)-4-{4-[4-(methylsulfonyl)-1-piperazinyl]-1-piperidinyl}phenyl)amino]-4-pyrimidinyl}imidazo[1,2-a]pyridin-2-yl)benzamide]
[1]; LISN study, 30, 100 and 300 mg/kg QD for 21 days, throughout the study
  body weight loss: no effect of Example 58 on body weight loss

## CCOc1cc(N2CCC(CCS(C)(=O)=O)CC2)c(C)cc1Nc1nccc(-c2c(-c3ccc(OC)c(C(=O)Nc4c(F)cccc4F)c3)nc3ccccn23)n1 [Example 219, N-(2,6-difluorophenyl)-5-(3-{2-[(2-(ethyloxy)-5-methyl-4-{4-[2-(methylsulfonyl)ethyl]-1-piperidinyl}phenyl)amino]-4-pyrimidinyl}imidazo[1,2-a]pyridin-2-yl)-2-(methyloxy)benzamide]
[1]; LISN study (~362 mm^3), 25 mg/kg BID and 50 mg/kg BID
  time to full recovery of body weight after the completion of dosing: ≤ 4 days
[1]; LISN study (~362 mm^3), 25 mg/kg BID for 21 days
  body weight loss: 4%
[1]; LISN study (~362 mm^3), 50 mg/kg BID for 21 days
  body weight loss: 6%
[1]; [4]
  body weight loss: no body weight loss
  tolerability: well tolerated

## CCc1cc(Nc2nccc(-c3c(-c4ccc(OC)c(C(=O)Nc5c(F)cccc5F)c4)nc4ccccn34)n2)c(OC)cc1N1CCC(N2CCN(S(C)(=O)=O)CC2)CC1 [Example 237, N-(2,6-difluorophenyl)-5-(3-{2-[(5-ethyl-2-(methyloxy)-4-{4-[4-(methylsulfonyl)-1-piperazinyl]-1-piperidinyl}phenyl)amino]-4-pyrimidinyl}imidazo[1,2-a]pyridin-2-yl)-2-(methyloxy)benzamide]
[1]; LISN study (~362 mm^3), 30 mg/kg BID
  initial body weight loss: 6%
[1]; LISN study (~362 mm^3), 30 mg/kg BID, fully recovered after dosing was concluded
  body weight loss by the end of dosing: 3%
[1]; LISN study (~362 mm^3), other groups (30 and 60 mg/kg QD)
  body weight loss: no effect on body weight loss
[1]; 30 mg/kg BID for 21 days
  tumor growth inhibition at day 21: 84%
[1]; 30 mg/kg QD for 21 days, 2 animals euthanized prior to the last measurement
  tumor growth inhibition at day 21: 15%
[1]; 60 mg/kg QD for 21 days
  tumor growth inhibition at day 21: 41%
